Test results published in the supplement of paper PMC10307832.

Legend:
Test in all cases: relative viability (nuclei count vs DMSO), 5 days (fraction); higher = more cells survive
Seliciclib + Dasatinib = compound: CC[C@H](CO)Nc1nc(NCc2ccccc2)c2ncn(C(C)C)c2n1 [Seliciclib] + Cc1nc(Nc2ncc(C(=O)Nc3c(C)cccc3Cl)s2)cc(N2CCN(CCO)CC2)n1 [Dasatinib] (partner 0.075 µM)
Summary of the method: (§1)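 Cells from lung cancer lines were seeded into 1536-well plates and, one day later, dosed by pin tool. Treatments were either a single drug or a fixed dose of an anchor drug with five library-drug doses (not always all listed) in √10 steps. After 5 days, nuclei were stained in a one-step fixation (final 0.05% Triton X-100, 1% formaldehyde, 1 ug/ml Hoechst) and counted on 4× images, and relative viability is the treated-to-vehicle nuclei ratio, as the median of duplicate plates.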

Seliciclib + Vorinostat = compound: CC[C@H](CO)Nc1nc(NCc2ccccc2)c2ncn(C(C)C)c2n1 [Seliciclib] + O=C(CCCCCCC(=O)Nc1ccccc1)NO [Vorinostat] (partner 1 µM)
Summary of the method: as §1

Seliciclib + Crizotinib = compound: CC[C@H](CO)Nc1nc(NCc2ccccc2)c2ncn(C(C)C)c2n1 [Seliciclib] + C[C@@H](Oc1cc(-c2cnn(C3CCNCC3)c2)cnc1N)c1c(Cl)ccc(F)c1Cl [Crizotinib] (partner 1 µM)
Summary of the method: as §1

Seliciclib + Navitoclax = compound: CC[C@H](CO)Nc1nc(NCc2ccccc2)c2ncn(C(C)C)c2n1 [Seliciclib] + CC1(C)CCC(c2ccc(Cl)cc2)=C(CN2CCN(c3ccc(C(=O)NS(=O)(=O)c4ccc(N[C@H](CCN5CCOCC5)CSc5ccccc5)c(S(=O)(=O)C(F)(F)F)c4)cc3)CC2)C1 [Navitoclax] (partner 0.5 µM)
Summary of the method: as §1

| Cell Line | relative viability (Seliciclib + Dasatinib; first compound 0.08 µM) | relative viability (Seliciclib + Dasatinib; first compound 0.253 µM) | relative viability (Seliciclib + Dasatinib; first compound 0.8 µM) | relative viability (Seliciclib + Dasatinib; first compound 2.53 µM) | relative viability (Seliciclib + Dasatinib; first compound 8 µM) | relative viability (Seliciclib + Vorinostat; first compound 0.08 µM) | relative viability (Seliciclib + Vorinostat; first compound 0.253 µM) | relative viability (Seliciclib + Vorinostat; first compound 0.8 µM) | relative viability (Seliciclib + Vorinostat; first compound 2.53 µM) | relative viability (Seliciclib + Vorinostat; first compound 8 µM) | relative viability (Seliciclib + Crizotinib; first compound 0.08 µM) | relative viability (Seliciclib + Crizotinib; first compound 0.253 µM) | relative viability (Seliciclib + Crizotinib; first compound 0.8 µM) | relative viability (Seliciclib + Crizotinib; first compound 2.53 µM) | relative viability (Seliciclib + Crizotinib; first compound 8 µM) | relative viability (Seliciclib + Navitoclax; first compound 0.08 µM) | relative viability (Seliciclib + Navitoclax; first compound 0.253 µM) | relative viability (Seliciclib + Navitoclax; first compound 0.8 µM) | relative viability (Seliciclib + Navitoclax; first compound 2.53 µM) | relative viability (Seliciclib + Navitoclax; first compound 8 µM) |
| --- | --- | --- | --- | --- | --- | --- | --- | --- | --- | --- | --- | --- | --- | --- | --- | --- | --- | --- | --- | --- |
| NCI-H441 | 0.732 | 0.848 | 0.536 | 0.339 | 0.601 | 0.844 | 0.418 | 0.898 | 0.771 | 0.639 | 0.896 | 0.631 | 0.833 | 0.66 | 0.519 | 0.603 | 0.365 | 0.526 | 0.566 | 0.59 |
| SK-LU-1 | 0.173 | 0.184 | 0.183 | 0.142 | 0.141 | 0.701 | 0.879 | 0.877 | 0.753 | 0.477 | 0.874 | 0.987 | 1.03 | 0.892 | 0.688 | 0.866 | 0.973 | 0.575 | 0.978 | 0.627 |
| BEN | 0.311 | 0.313 | 0.375 | 0.271 | 0.322 | 0.543 | 0.533 | 0.55 | 0.502 | 0.489 | 0.753 |  | 0.822 | 0.929 | 0.832 | 0.0594 |  | 0.0808 | 0.213 | 0.0793 |
| LC-2-ad | 0.638 | 0.802 | 0.63 | 0.326 | 0.459 | 0.7 | 0.68 | 0.671 | 0.445 | 0.528 | 0.442 | 0.456 | 0.479 | 0.46 | 0.404 | 0.419 | 0.505 | 0.379 | 0.494 | 0.271 |
| COR-L23 | 0.457 | 0.644 | 0.484 | 0.342 | 0.383 | 0.402 | 0.43 | 0.403 | 0.458 | 0.359 | 0.61 | 0.806 | 0.693 | 0.671 | 0.519 | 0.906 | 1.1 | 0.867 | 1.06 | 0.733 |
| NCI-H1650 | 0.3 | 0.344 | 0.304 | 0.247 | 0.285 | 0.474 | 0.511 | 0.558 | 0.526 | 0.326 | 0.885 | 1.12 | 0.924 | 0.847 | 0.607 | 1.12 | 1.01 | 1.07 | 1.21 | 1.08 |
| RERF-LC-KJ | 0.908 | 0.841 | 0.902 | 0.627 | 0.617 | 0.698 | 0.641 | 0.661 | 0.55 | 0.439 | 0.803 | 0.787 | 0.785 | 0.85 | 0.786 | 0.759 | 0.673 | 0.812 | 0.804 | 0.651 |
| SK-MES-1 | 0.395 | 0.504 | 0.386 | 0.231 | 0.344 | 1.03 | 1.13 | 1.11 | 1.02 | 1.01 | 1 | 1 | 0.891 | 0.96 | 0.914 | 1.24 | 1.34 | 1.11 | 1.04 | 0.715 |
| NCI-H1915 | 0.354 | 0.303 | 0.277 | 0.288 | 0.283 | 0.499 | 0.532 | 0.611 | 0.492 | 0.421 | 0.922 | 0.964 | 0.88 | 0.816 | 0.757 | 0.776 | 0.779 | 0.759 | 0.8 | 0.618 |
| NCI-H596 | 0.658 |  | 0.594 | 0.606 | 0.515 | 0.635 |  | 0.56 | 0.506 | 0.47 | 0.959 | 0.759 | 0.981 | 1.05 | 0.988 | 1 | 0.567 | 0.891 | 1.16 | 0.826 |
| NCI-H2009 | 0.322 | 0.376 | 0.307 | 0.233 | 0.288 | 0.742 | 0.862 | 0.753 | 0.687 | 0.671 | 1.04 | 0.963 | 1.06 | 0.987 | 0.989 | 1.14 | 1.17 | 1.13 | 1.2 | 1.08 |
| NCI-H2126 | 0.671 | 0.598 | 0.557 | 0.334 | 0.501 | 0.806 | 0.783 | 0.579 | 0.375 | 0.611 | 0.988 | 0.979 | 0.965 | 0.992 | 0.861 | 0.817 | 0.799 | 0.844 | 0.878 | 0.787 |
| LXF-289 | 0.245 | 0.202 | 0.248 | 0.128 | 0.221 | 0.735 | 0.824 | 0.671 | 0.582 | 0.457 | 0.82 | 0.871 | 0.779 | 0.835 | 0.638 | 0.937 | 1.03 | 0.795 | 0.934 | 0.914 |
| PC-14 | 0.288 | 0.396 | 0.269 | 0.215 | 0.23 | 0.663 | 0.747 | 0.744 | 0.644 | 0.625 | 0.865 | 0.846 | 0.78 | 0.991 | 0.759 | 0.988 | 1.04 | 0.959 | 1.09 | 0.767 |
| HOP-62 | 0.661 | 0.58 | 0.578 | 0.603 | 0.653 | 0.65 | 0.623 | 0.732 | 0.479 | 0.437 | 1.02 | 0.981 | 0.976 | 0.781 | 0.898 | 1.01 | 1.1 | 0.909 | 1.12 | 0.926 |
| NCI-H1944 | 0.242 | 0.198 | 0.208 | 0.17 | 0.205 | 0.562 | 0.527 | 0.466 | 0.552 | 0.338 | 1.09 | 1.16 | 0.931 | 0.996 | 0.714 | 0.987 | 1.01 | 0.946 | 1.11 | 0.871 |
| NCI-H2170 | 0.547 | 0.464 | 0.472 | 0.636 | 0.52 | 0.742 |  | 0.774 | 0.687 | 0.663 | 1.1 | 0.873 | 1.18 | 1.4 | 1.11 | 0.671 | 0.338 | 0.596 | 0.667 | 0.523 |
| NCI-H1666 | 0.732 | 0.888 | 0.875 | 0.605 | 0.551 | 1.01 | 1 | 0.978 | 1.01 | 0.749 | 1.08 | 0.953 | 1.05 | 0.852 | 0.46 | 0.951 | 1.05 | 0.909 | 1.06 | 0.512 |
| NCI-H1355 | 0.755 | 0.585 | 0.683 | 0.544 | 0.686 | 0.635 | 0.605 | 0.647 | 0.523 | 0.5 | 1.01 | 1.05 | 1.13 | 1.16 | 0.998 | 0.952 | 0.861 | 1.01 | 1.13 | 0.873 |
| HCC-827 | 0.359 | 0.298 | 0.258 | 0.324 | 0.236 | 0.845 | 0.951 | 0.912 | 0.77 | 0.756 | 0.909 | 0.914 | 0.911 | 0.931 | 0.839 | 1 | 1.03 | 1.01 | 0.976 | 0.953 |
| HARA | 0.288 | 0.274 | 0.319 | 0.228 | 0.245 | 0.555 | 0.518 | 0.588 | 0.381 | 0.487 | 1.06 | 1.16 | 1.06 | 1.21 | 0.638 | 1.13 | 1.23 | 1.11 | 1.16 | 1.07 |
| HCC-366 | 0.565 | 0.376 | 0.57 | 0.381 | 0.473 | 0.317 | 0.467 | 0.377 | 0.212 | 0.164 | 0.477 | 0.418 | 0.497 | 0.946 | 0.354 | 1.01 | 0.699 | 1.03 | 1.17 | 0.947 |
| NCI-H322M | 0.257 | 0.267 | 0.263 | 0.232 | 0.219 | 0.894 | 1.03 | 0.87 | 0.773 | 0.521 | 0.85 | 1.06 | 0.839 | 1.06 | 0.554 | 1.22 | 1.34 | 1.12 | 1.37 | 1.24 |
| NCI-H2347 | 0.323 | 0.35 | 0.209 | 0.248 | 0.302 | 0.595 | 0.656 | 0.443 | 0.566 | 0.432 | 0.711 | 0.741 | 0.742 | 0.763 | 0.595 | 0.763 | 0.801 | 0.73 | 0.859 | 0.568 |
| NCI-H1975 | 0.409 | 0.374 | 0.424 | 0.326 | 0.314 | 0.689 | 0.608 | 0.66 | 0.652 | 0.46 | 0.966 | 0.984 | 0.917 | 0.924 | 0.662 | 1 | 0.959 | 1.05 | 1.12 | 0.878 |
| UMC-11 | 0.517 | 0.52 | 0.491 | 0.507 | 0.458 | 0.432 | 0.336 | 0.353 | 0.281 | 0.194 | 0.654 | 0.558 | 0.672 | 0.712 | 0.404 | 0.316 | 0.279 | 0.313 | 0.29 | 0.25 |
| A-427 | 0.612 | 0.691 | 0.687 | 0.735 | 0.738 | 0.856 | 0.815 | 0.877 | 0.823 | 0.824 | 0.833 | 0.924 | 0.795 | 0.905 | 0.785 | 1.01 | 0.95 | 0.809 | 0.946 | 0.95 |
